Experimental findings from patent publication US10710986B2, “PD-1/PD-L1 inhibitors” (Gilead Sciences, Inc., priority 2018, dated 2020) are described below.

For orientation: IC50 means the midpoint of a concentration-inhibition curve.

This assay deals with PD-1/PD-L1 (Homo sapiens (Human), UniProt Q9NZQ7). In words: PD-1/PD-L1 biochemical protein-protein interaction assay (ALPHA). As to conditions: 0.3 nM His tagged PD-L1, 2.5 nM biotinylated Fc-PD-1, 60 minutes at 25° C., read-out: IC50 PD-L1-PD1.
Chain of PD-1/PD-L1 (Q9NZQ7 19-238): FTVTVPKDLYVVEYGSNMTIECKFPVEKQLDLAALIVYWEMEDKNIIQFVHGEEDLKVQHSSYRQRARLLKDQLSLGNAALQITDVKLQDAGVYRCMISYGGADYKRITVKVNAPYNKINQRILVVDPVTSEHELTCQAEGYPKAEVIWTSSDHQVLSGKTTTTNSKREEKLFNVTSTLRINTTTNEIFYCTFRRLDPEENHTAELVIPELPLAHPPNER
In the case of `COc1nc(-c2cccc(-c3cccc(-c4cnc(CN5CC[C@@H](C(N)=O)C5)c(OC)n4)c3Cl)c2Cl)cnc1CNC[C@@H]1CCC(=O)N1` [compound 535], the IC50 worked out at 0.095 nM.

As for `COc1nc(-c2cccc(-c3cccc(-c4cnc(CNC[C@@H]5CCC(=O)N5)c(OC)n4)c3Cl)c2Cl)cnc1CNCc1ccnn1C` [compound 34], the IC50 came to 0.231 nM.

As to `COc1nc(-c2cccc(-c3cccc(-c4cnc(CNC[C@@H](O)CC(=O)O)c(OC)n4)c3Cl)c2Cl)cnc1CNC[C@@H](O)CC(=O)O` [compound 137], the concentration for half-maximal inhibition (IC50) was found to be 0.168 nM.

As for `COc1nc(-c2cccc(-c3cccc(-c4cnc(CNC5CCN(C(C)=O)C5)c(OC)n4)c3Cl)c2Cl)cnc1CNC[C@H]1CCC(=O)N1` (stereo partly drawn) [compound 194], the IC50 is 0.149 nM.

With `CNc1nc(-c2cccc(-c3cccc(-c4cnc(CN5CC6(C5)CN(C(C)=O)C6)c(OC)n4)c3Cl)c2Cl)cnc1CN1CC2(C1)CN(C(C)=O)C2` [compound 59], the IC50 came out at 0.1 nM.

Regarding `COc1nc(-c2cccc(-c3cccc(-c4cnc(CNC5CS(=O)(=O)C5)c(OC)n4)c3Cl)c2Cl)cnc1CNC[C@@H]1CCC(=O)N1` [compound 560], the concentration for half-maximal inhibition (IC50) came out at 0.144 nM.

Consider `COc1nc(-c2cccc(-c3cccc(-c4cnc(CNC5CC(F)C5)c(OC)n4)c3Cl)c2Cl)cnc1CNC[C@@H]1CCC(=O)N1` (stereo partly drawn) [compound 283], for which the IC50 was found to be 0.711 nM.

Consider `COc1nc(-c2cccc(-c3cccc(-c4cnc(CNC5CCN(C(N)=O)CC5)c(OC)n4)c3Cl)c2Cl)cnc1CNC[C@@H]1CCC(=O)N1` [compound 470], for which the IC50 stood at 0.094 nM.

Regarding `CNc1nc(-c2cccc(-c3cccc(-c4cnc(CN5CCCC5)c(NC)n4)c3Cl)c2Cl)cnc1CN1CCCC1` [compound 70], the IC50 was determined as 0.784 nM.

For `COc1nc(-c2cccc(-c3cccc(-c4cnc(CN5CC(C(N)=O)C5)c(OC)n4)c3Cl)c2Cl)cnc1CN1CC(C(N)=O)C1` [compound 527], the IC50 is 0.089 nM.

On to `COc1nc(-c2cccc(-c3cccc(-c4cnc(CNC[C@@H]5CCS(=O)(=O)N5)c(OC)n4)c3Cl)c2Cl)cnc1CNC[C@@H]1CCS(=O)(=O)N1` [compound 569], for which the IC50 amounted to 0.59 nM.

As for `COc1nc(-c2cccc(-c3cccc(-c4cnc(CNC(CO)c5nn[nH]n5)c(OC)n4)c3Cl)c2Cl)cnc1CNC[C@@H]1CCC(=O)N1` (stereo partly drawn) [compound 38], the IC50 stood at 0.66 nM.

On to `COc1nc(-c2cccc(-c3cccc(-c4cnc(CNC5CC6(C5)CS(=O)(=O)C6)c(OC)n4)c3Cl)c2Cl)cnc1CNC[C@@H]1CCC(=O)N1` [compound 363], for which the IC50 came to 0.424 nM.

For `COc1nc(-c2cccc(-c3cccc(-c4cnc(CN5CC(O)C5)c(OC)n4)c3Br)c2Cl)cnc1CN1CC(O)C1` [compound 391], the IC50 was 0.232 nM.

Take `COc1nc(-c2cccc(-c3cccc(-c4cnc(CN5CC(F)(CO)C5)c(OC)n4)c3Cl)c2Cl)cnc1CN1CC(F)(CO)C1` [compound 239]: the IC50 came to 0.3 nM.

For `CCn1cc(CN2CC3(C2)CN(C(C)=O)C3)c2ncc(-c3cccc(-c4cccc(-c5cnc(CN6CC7(C6)CN(C(C)=O)C7)c(OC)n5)c4Cl)c3Cl)nc21` [compound 608], the IC50 turned out to be 0.064 nM.

As for `COc1nc(-c2cccc(-c3cccc(-c4cnc(CNC(C)(C)CO)c(OC)n4)c3Cl)c2Cl)cnc1CNC[C@@H]1CCC(=O)N1` [compound 377], the IC50 amounted to 0.098 nM.

Take `COc1nc(-c2cccc(-c3cccc(-c4cnc(CN5CC(OCC(N)=O)C5)c(OC)n4)c3Cl)c2Cl)cnc1CN1CC(OCC(N)=O)C1` [compound 657]: the IC50 came to 0.064 nM.

Turning to `COC[C@H]1CCN1Cc1ncc(-c2cccc(-c3cccc(-c4cnc(CNC[C@@H]5CCC(=O)N5)c(OC)n4)c3Cl)c2Cl)nc1OC` [compound 309], the IC50 came out at 0.178 nM.

On to `COc1nc(-c2cccc(-c3cccc(-c4ccc(CN5CC(C)(CO)C5)c(C#N)c4)c3Cl)c2Cl)cnc1CNC[C@@H]1CCC(=O)N1` [compound 154], for which the IC50 was determined as 0.126 nM.

Regarding `COc1nc(-c2cccc(-c3cccc(-c4cnc(CN5CC(c6ccccc6)C5)c(OC)n4)c3Cl)c2Cl)cnc1CNC[C@@H]1CCC(=O)N1` [compound 350], the half-inhibitory concentration (IC50) was 0.737 nM.
